Source: the NIST ThermoML archive (doi:10.1021/je0301040)
Numbers after ± are expanded uncertainties.

Test: xn = mol fraction of the nth substance listed

FC(Cl)(Cl)Cl [trichlorofluoromethane] + FC(F)Cl
Conditions	mass density [kg/m3]
298.15 K, 27634 kPa, Liquid, Pycnometric method, x1 = 0.8336	1504 ± 1.5
298.15 K, 35295 kPa, Liquid, Pycnometric method, x1 = 0.8336	1518.86 ± 1.5
298.15 K, 42224 kPa, Liquid, Pycnometric method, x1 = 0.8336	1531.13 ± 1.4
298.15 K, 56475 kPa, Liquid, Pycnometric method, x1 = 0.8336	1554.44 ± 1.4
298.15 K, 67870 kPa, Liquid, Pycnometric method, x1 = 0.8336	1570.81 ± 1.5
305.99 K, 2209.4 kPa, Liquid, isochoric method, x1 = 0.832	1419.96 ± 0.45
305.99 K, 2209.7 kPa, Liquid, isochoric method, x1 = 0.832	1419.96 ± 0.45
308.99 K, 4508.6 kPa, Liquid, isochoric method, x1 = 0.832	1419.67 ± 0.45
311.99 K, 6798.4 kPa, Liquid, isochoric method, x1 = 0.832	1419.39 ± 0.45
311.99 K, 6800.1 kPa, Liquid, isochoric method, x1 = 0.832	1419.39 ± 0.45
319.98 K, 1419.4 kPa, Liquid, Pycnometric method, x1 = 0.8336	1381.39 ± 2.1
319.98 K, 2419.9 kPa, Liquid, Pycnometric method, x1 = 0.8336	1385.12 ± 2.1
319.99 K, 690.7 kPa, Liquid, Pycnometric method, x1 = 0.8336	1378.66 ± 2.1
319.99 K, 1087.6 kPa, Liquid, Pycnometric method, x1 = 0.8336	1380.16 ± 2.1
319.99 K, 1721.1 kPa, Liquid, Pycnometric method, x1 = 0.8336	1382.53 ± 2.1
319.99 K, 2054.4 kPa, Liquid, Pycnometric method, x1 = 0.8336	1383.74 ± 2.1
319.99 K, 2726 kPa, Liquid, Pycnometric method, x1 = 0.8336	1386.19 ± 2.1
319.99 K, 3165.8 kPa, Liquid, Pycnometric method, x1 = 0.8336	1387.81 ± 2.1
319.99 K, 3805.2 kPa, Liquid, Pycnometric method, x1 = 0.8336	1390.08 ± 2.1
319.99 K, 7368.4 kPa, Liquid, Pycnometric method, x1 = 0.8336	1402.12 ± 2
319.99 K, 13993 kPa, Liquid, Pycnometric method, x1 = 0.8336	1422.16 ± 1.9
319.99 K, 20936 kPa, Liquid, Pycnometric method, x1 = 0.8336	1440.83 ± 1.8
319.99 K, 27630 kPa, Liquid, Pycnometric method, x1 = 0.8336	1456.91 ± 1.7
319.99 K, 35180 kPa, Liquid, Pycnometric method, x1 = 0.8336	1473.5 ± 1.6
319.99 K, 42218 kPa, Liquid, Pycnometric method, x1 = 0.8336	1486.74 ± 1.6
319.99 K, 49603 kPa, Liquid, Pycnometric method, x1 = 0.8336	1501.44 ± 1.6
319.99 K, 56549 kPa, Liquid, Pycnometric method, x1 = 0.8336	1513.51 ± 1.6
319.99 K, 62595 kPa, Liquid, Pycnometric method, x1 = 0.8336	1523.41 ± 1.6
319.99 K, 66514 kPa, Liquid, Pycnometric method, x1 = 0.8336	1534.42 ± 1.6
325.99 K, 1939.3 kPa, Liquid, isochoric method, x1 = 0.832	1362.85 ± 0.43
328.99 K, 3911.9 kPa, Liquid, isochoric method, x1 = 0.832	1362.59 ± 0.43
331.99 K, 5879.8 kPa, Liquid, isochoric method, x1 = 0.832	1362.33 ± 0.44
331.99 K, 5890.5 kPa, Liquid, isochoric method, x1 = 0.832	1362.33 ± 0.44
349.98 K, 353.7 kPa, Gas, isochoric method, x1 = 0.832	131.816 ± 0.078
349.98 K, 1087.3 kPa, Liquid, Pycnometric method, x1 = 0.8336	1291.23 ± 2.3
349.98 K, 1418.4 kPa, Liquid, Pycnometric method, x1 = 0.8336	1293.05 ± 2.4
349.98 K, 1769.1 kPa, Liquid, Pycnometric method, x1 = 0.8336	1294.97 ± 2.4
349.98 K, 2081.3 kPa, Liquid, Pycnometric method, x1 = 0.8336	1296.63 ± 2.3
349.98 K, 2408.9 kPa, Liquid, Pycnometric method, x1 = 0.8336	1298.31 ± 2.3
349.98 K, 2747.4 kPa, Liquid, Pycnometric method, x1 = 0.8336	1300.08 ± 2.3
349.98 K, 3091.9 kPa, Liquid, Pycnometric method, x1 = 0.8336	1301.88 ± 2.3
349.98 K, 7457.3 kPa, Liquid, Pycnometric method, x1 = 0.8336	1322.34 ± 2.1
349.98 K, 14287 kPa, Liquid, Pycnometric method, x1 = 0.8336	1349.36 ± 2
349.98 K, 20907 kPa, Liquid, Pycnometric method, x1 = 0.8336	1371.66 ± 1.8
349.98 K, 35596 kPa, Liquid, Pycnometric method, x1 = 0.8336	1412.26 ± 1.7
349.98 K, 42532 kPa, Liquid, Pycnometric method, x1 = 0.8336	1428.61 ± 1.6
349.98 K, 49571 kPa, Liquid, Pycnometric method, x1 = 0.8336	1443.89 ± 1.6
349.98 K, 56566 kPa, Liquid, Pycnometric method, x1 = 0.8336	1457.8 ± 1.6
349.98 K, 62677 kPa, Liquid, Pycnometric method, x1 = 0.8336	1469.23 ± 1.6
349.99 K, 3577.6 kPa, Liquid, Pycnometric method, x1 = 0.8336	1304.32 ± 2.3
349.99 K, 27703 kPa, Liquid, Pycnometric method, x1 = 0.8336	1391.72 ± 1.8
349.99 K, 68231 kPa, Liquid, Pycnometric method, x1 = 0.8336	1479.1 ± 1.7
351.98 K, 3607.1 kPa, Liquid, isochoric method, x1 = 0.832	1298.78 ± 0.43
354.98 K, 5239.3 kPa, Liquid, isochoric method, x1 = 0.832	1298.54 ± 0.42
357.98 K, 6868 kPa, Liquid, isochoric method, x1 = 0.832	1298.31 ± 0.42
357.98 K, 6868.5 kPa, Liquid, isochoric method, x1 = 0.832	1298.31 ± 0.42
357.98 K, 6872.5 kPa, Liquid, isochoric method, x1 = 0.832	1298.31 ± 0.42
357.98 K, 6876.5 kPa, Liquid, isochoric method, x1 = 0.832	1298.31 ± 0.42
374.97 K, 140.1 kPa, Fluid (supercritical or subcritical phases), Burnett expansion method, x1 = 0.832	5.9076 ± 0.12
374.97 K, 155.55 kPa, Fluid (supercritical or subcritical phases), Burnett expansion method, x1 = 0.832	6.5788 ± 0.13
374.97 K, 572.06 kPa, Fluid (supercritical or subcritical phases), Burnett expansion method, x1 = 0.832	25.934 ± 0.52
374.97 K, 705.75 kPa, Fluid (supercritical or subcritical phases), Burnett expansion method, x1 = 0.832	32.8139 ± 0.66
374.97 K, 712.23 kPa, Fluid (supercritical or subcritical phases), Burnett expansion method, x1 = 0.832	33.1519 ± 0.67
374.97 K, 775.25 kPa, Fluid (supercritical or subcritical phases), Burnett expansion method, x1 = 0.832	36.5414 ± 0.73
374.97 K, 2140.4 kPa, Liquid, Pycnometric method, x1 = 0.8336	1209.34 ± 2.7
374.97 K, 2454.5 kPa, Liquid, Pycnometric method, x1 = 0.8336	1211.8 ± 2.7
374.97 K, 2781.1 kPa, Liquid, Pycnometric method, x1 = 0.8336	1214.3 ± 2.6
